Experimental data from patent publication US20240335442A1 (Eurofarma Laboratórios S.A., priority 2021, published 2024).
pIC50: −log10 of the molar value.

Key:
[1] = target: human sodium channel Nav 1.8 (Homo sapiens (Human), UniProt Q9Y5Y9); assay: Automated whole-cell voltage-clamp (ScreenPatch 384P), Nav 1.8 sodium current, Protocol 2; assay type: cell-based; settings: read-out: Nav1.8 IC50
Method: (§1) Biological assays were performed on Chinese hamster ovary (CHO) cells expressing the human sodium channels Nav 1.8 and Nav 1.7 stably.
(§2) The experimental voltage-clamp protocol using the whole cell configuration was established on the automated ScreenPatch® 384P platform (SP384PE, Nanion Technologies, Livingston, NJ) and recording of the results was performed with a Nanion 384-well Patch Clamp chip (NPC) (Nanion Technologies, Livingston, NJ).
(§3) Compounds of Formula (I), were diluted in eight concentrations in the extracellular solution composed of physiological saline, buffered with HEPES (mM): NaCl, 137; KCl, 4; CaCl2, 3.8; MgCl2, 1; HEPES, 10; Glucose, 10; pH 7.4. The […], 50; CsF, 90; MgCl2, 5; EGTA, 5; HEPES, 10; pH 7.2. The duration of exposure of each compound with the cells expressing Nav 1.7 or Nav 1.8 was at least five minutes and the assays were performed at room temperature.
(§4) The measurements of the sodium currents of Nav 1.8 and Nav 1.7 were obtained using the voltage protocols described below: • Protocol 1: A holding voltage of-90 mV was established followed by a voltage phase of 200 ms to-120 mV, followed by a voltage step of 10 mV for 1 second for Nav 1.8 or 0 mV for Nav 1.7, followed by a step of-100 mV for 20 ms, followed by a step of 20 ms for 10 mV for Nav 1.8 or 0 mV for Nav 1.7 (TP1A) before returning to the holding voltage of-90 mV. • Protocol 2: A holding voltage of-100 mV was established followed by an inactivation voltage step at −40 mV for 8 seconds, followed by a −100 mV step for 20 ms, followed by a 20 ms step for 10 mV for Nav 1.8 or 0 mV for Nav 1.7 (TP1A) before returning to the holding voltage of-100 mV.
(§5) Protocols were repeated at a frequency of 0.1 Hz (Protocol 1) or 0.05 Hz (Protocol 2) and current amplitude was quantified over the TP1A phase log. The variation in the peak amplitude of the current was evaluated according to the Formula described below, after exposure of the cells expressing the channels, at each concentration of the different compounds:
(§6) where ITP1A,basal, and ITP1A,molecule represent the entry peaks of sodium currents into TP1A prior to exposure to the compound and in the presence of the compound, respectively.
(§7) The decrease in peak current amplitude, after exposure of the cells to the compounds, was used to calculate the percent relative blocking of the channels relative to the positive control according to the Formula below: […]
(§8) where % V and % CP represent the averages of the values of current inhibition with a vehicle (DMSO) and positive controls, respectively. The sodium currents of the positive control were considered as 100%.
(§9) where [Test] represents the concentration of the evaluated molecule, IC50 is the concentration of the compound that generates half of the maximum inhibition, N is the Hill's coefficient and % Block′ is the percentage of the sodium channel current (Nav 1.8 and Nav 1.7) inhibited at each concentration of the evaluated molecule. Data were obtained by non linear least squares regression with XL fit for Excel (Microsoft, Redmond, WA).
(§10) Compounds were tested in at least one assay to obtain the IC50 value.

[2] = target: human sodium channel Nav 1.7 (Homo sapiens (Human), UniProt Q15858); assay: Automated whole-cell voltage-clamp (ScreenPatch 384P), Nav 1.7 sodium current, Protocol 2; assay type: cell-based; settings: read-out: Nav1.7 IC50
Sequence of human sodium channel Nav 1.7 (Q15858 whole entry): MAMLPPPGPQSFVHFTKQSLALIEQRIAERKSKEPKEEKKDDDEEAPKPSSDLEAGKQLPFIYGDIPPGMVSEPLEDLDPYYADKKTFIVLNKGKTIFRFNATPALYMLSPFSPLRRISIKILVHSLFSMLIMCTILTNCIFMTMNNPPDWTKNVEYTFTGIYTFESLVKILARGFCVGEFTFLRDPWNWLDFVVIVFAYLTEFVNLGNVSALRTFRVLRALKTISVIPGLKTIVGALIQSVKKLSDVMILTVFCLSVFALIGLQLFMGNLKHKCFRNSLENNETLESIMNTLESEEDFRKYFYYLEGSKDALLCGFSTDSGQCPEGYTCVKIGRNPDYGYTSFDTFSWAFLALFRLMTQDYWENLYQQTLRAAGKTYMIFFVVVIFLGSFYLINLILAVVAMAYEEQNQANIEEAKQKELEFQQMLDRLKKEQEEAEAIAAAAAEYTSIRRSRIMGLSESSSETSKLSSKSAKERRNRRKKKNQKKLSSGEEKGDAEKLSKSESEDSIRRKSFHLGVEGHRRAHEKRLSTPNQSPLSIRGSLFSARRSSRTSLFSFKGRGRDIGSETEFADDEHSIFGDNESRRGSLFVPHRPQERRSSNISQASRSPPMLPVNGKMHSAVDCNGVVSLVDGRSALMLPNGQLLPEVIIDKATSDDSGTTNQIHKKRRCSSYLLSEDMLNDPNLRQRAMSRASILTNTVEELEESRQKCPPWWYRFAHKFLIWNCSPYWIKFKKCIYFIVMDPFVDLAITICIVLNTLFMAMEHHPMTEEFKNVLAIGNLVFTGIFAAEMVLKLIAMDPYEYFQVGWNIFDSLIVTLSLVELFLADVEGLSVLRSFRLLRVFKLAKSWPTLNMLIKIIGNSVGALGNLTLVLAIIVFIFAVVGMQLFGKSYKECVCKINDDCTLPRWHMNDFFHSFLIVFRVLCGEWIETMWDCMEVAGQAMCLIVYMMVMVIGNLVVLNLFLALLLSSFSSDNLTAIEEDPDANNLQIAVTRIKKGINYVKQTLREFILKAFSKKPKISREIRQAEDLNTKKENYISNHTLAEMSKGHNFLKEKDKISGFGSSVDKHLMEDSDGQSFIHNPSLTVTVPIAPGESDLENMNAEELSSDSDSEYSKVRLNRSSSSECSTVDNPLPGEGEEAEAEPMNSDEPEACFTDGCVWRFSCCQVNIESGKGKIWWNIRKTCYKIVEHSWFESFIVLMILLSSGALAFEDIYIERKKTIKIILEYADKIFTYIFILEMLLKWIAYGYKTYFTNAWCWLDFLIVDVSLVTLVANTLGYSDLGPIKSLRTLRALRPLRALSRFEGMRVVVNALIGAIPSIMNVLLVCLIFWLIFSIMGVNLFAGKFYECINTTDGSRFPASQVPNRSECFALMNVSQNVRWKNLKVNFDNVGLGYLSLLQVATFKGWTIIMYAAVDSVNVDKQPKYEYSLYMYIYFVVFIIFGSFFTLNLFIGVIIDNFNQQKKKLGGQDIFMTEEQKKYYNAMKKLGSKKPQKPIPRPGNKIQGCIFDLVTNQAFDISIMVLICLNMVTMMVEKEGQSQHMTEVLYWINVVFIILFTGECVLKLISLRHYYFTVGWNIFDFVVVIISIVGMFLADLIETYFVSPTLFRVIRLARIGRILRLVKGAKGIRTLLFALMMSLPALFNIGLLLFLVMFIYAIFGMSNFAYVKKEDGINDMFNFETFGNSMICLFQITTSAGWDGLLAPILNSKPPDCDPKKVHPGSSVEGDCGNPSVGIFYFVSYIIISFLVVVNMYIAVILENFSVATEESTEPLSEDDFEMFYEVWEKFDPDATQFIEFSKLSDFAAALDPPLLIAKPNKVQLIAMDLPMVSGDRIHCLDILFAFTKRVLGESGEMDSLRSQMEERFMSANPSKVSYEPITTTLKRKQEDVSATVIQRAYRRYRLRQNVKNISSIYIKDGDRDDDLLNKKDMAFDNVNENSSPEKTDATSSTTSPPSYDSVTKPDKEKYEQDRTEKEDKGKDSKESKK
Method: as §1, §2, §3, §4, §5, §6, §7, §8, §9, §10

Sequence of human sodium channel Nav 1.8 (Q9Y5Y9 whole entry): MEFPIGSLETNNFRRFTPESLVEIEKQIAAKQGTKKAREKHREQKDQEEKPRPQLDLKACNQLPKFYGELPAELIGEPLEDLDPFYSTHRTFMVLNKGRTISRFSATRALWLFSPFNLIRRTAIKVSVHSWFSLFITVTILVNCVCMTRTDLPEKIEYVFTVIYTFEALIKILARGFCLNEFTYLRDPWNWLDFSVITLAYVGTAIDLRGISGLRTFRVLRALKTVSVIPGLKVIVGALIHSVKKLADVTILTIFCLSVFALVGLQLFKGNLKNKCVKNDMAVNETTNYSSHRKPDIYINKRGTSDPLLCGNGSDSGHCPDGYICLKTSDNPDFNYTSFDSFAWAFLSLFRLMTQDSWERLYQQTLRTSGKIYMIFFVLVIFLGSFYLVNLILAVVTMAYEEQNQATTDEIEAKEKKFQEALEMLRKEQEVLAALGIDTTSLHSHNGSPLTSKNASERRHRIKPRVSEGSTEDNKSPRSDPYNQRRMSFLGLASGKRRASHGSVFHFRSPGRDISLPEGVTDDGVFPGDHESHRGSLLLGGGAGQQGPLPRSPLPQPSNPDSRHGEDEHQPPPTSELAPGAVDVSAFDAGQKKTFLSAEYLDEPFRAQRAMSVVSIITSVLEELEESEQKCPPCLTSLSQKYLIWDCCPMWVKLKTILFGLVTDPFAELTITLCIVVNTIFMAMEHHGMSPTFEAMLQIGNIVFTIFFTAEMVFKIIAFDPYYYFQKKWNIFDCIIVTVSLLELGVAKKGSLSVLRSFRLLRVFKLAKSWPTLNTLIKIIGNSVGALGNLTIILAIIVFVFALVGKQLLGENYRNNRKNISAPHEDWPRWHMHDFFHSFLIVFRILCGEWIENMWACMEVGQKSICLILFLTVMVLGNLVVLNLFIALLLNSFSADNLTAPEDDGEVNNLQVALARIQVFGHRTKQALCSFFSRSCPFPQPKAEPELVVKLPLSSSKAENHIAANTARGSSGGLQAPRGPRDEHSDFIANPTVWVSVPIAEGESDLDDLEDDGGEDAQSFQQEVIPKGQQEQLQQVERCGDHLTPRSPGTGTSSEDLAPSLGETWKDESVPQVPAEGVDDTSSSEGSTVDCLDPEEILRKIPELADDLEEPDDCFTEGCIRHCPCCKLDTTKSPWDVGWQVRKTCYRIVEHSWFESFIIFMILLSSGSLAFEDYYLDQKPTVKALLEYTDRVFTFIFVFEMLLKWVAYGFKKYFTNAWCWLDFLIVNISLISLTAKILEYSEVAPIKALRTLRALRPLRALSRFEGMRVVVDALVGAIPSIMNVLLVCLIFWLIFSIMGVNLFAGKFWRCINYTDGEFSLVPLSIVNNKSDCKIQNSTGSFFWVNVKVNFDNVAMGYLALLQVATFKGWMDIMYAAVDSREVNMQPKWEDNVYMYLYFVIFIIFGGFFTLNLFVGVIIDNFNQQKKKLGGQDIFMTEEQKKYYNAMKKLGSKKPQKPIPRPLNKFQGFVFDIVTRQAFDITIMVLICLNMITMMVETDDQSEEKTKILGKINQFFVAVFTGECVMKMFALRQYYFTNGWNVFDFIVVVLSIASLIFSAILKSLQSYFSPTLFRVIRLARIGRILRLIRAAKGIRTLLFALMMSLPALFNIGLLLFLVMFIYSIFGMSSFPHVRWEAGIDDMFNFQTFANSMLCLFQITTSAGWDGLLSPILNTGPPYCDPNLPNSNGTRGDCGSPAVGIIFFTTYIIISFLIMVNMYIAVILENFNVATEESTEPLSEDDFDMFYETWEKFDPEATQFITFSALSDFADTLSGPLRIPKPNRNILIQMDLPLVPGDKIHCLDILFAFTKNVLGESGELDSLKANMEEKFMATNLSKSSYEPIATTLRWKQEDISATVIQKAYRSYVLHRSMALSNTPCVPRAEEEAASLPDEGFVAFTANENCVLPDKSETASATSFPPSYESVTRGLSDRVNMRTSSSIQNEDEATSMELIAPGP

pIC50 [1]	pIC50 [2]	Structure (SMILES)
< 6.00	5.49	CCOc1ccc(-c2cncc(C(=O)N/N=C/c3ccccc3CS(C)(=O)=O)n2)cc1 [Compound 191, (E)-6-(4-ethoxyphenyl)-N′-(2-((methylsulfonyl)methyl)benzylidene)pyrazine-2-carbohydrazide]
< 6.00	< 5.00	COc1cc(/C=N/NC(=O)c2cnc(OC)cn2)cc(OC)c1 [Compound 142, (E)-N′-(3,5-dimethoxybenzylidene)-5-methoxypyrazine-2-carbohydrazide]
< 6.00	< 5.00	COc1ccc(Oc2cnc(C(=O)N/N=C/c3cc(OC)cc(OC)c3)cn2)cc1 [Compound 130]
< 6.00	< 5.00	COc1cc(/C=N/NC(=O)c2cncc(N3CCCC(F)(F)CC3)n2)cc(OC)c1 [Compound 179, (E)-6-(4,4-difluoroazepan-1-yl)-N′-(3,5-dimethoxybenzylidene)pyrazine-2-carbohydrazide]
< 6.00	< 5.00	COc1cc(/C=N/NC(=O)c2cncc(C)n2)cc(OC)c1 [Compound 137, (E)-N′-(3,5-dimethoxybenzylidene)-6-methylpyrazine-2-carbohydrazide]
6.17	< 5.00	CCOc1ccc(-c2nc(C(=O)N/N=C/c3cc(OC)cc(OC)c3)cnc2C(F)(F)F)cc1 [Compound 210, (E)-N′-(3,5-dimethoxybenzylidene)-6-(4-ethoxyphenyl)-5-(trifluoromethyl)pyrazine-2-carbohydrazide]
6.31	5.73	COc1ccc(-c2cncc(C(=O)N/N=C/c3cccc(C(C)(C)C)c3)n2)cc1 [Compound 59, (E)-N′-(3-(tert-butyl)benzylidene)-6-(4-methoxyphenyl)pyrazine-2-carbohydrazide]
< 6.00	< 5.00	CCOc1ccc(-c2cncc(C(=O)N/N=C/c3ccccc3NS(C)(=O)=O)n2)cc1 [Compound 193, (E)-N-(2-((2-(6-(4-ethoxyphenyl)pyrazine-2-carbonyl)hydrazinalidene)methyl)phenyl)methanesulfonamide]
< 6.00	< 5.00	COc1ccc(-c2cncc(C(=O)N/N=C/c3cc(C(C)(C)C)cc(C(C)(C)C)c3)n2)cc1 [Compound 76, (E)-N′-(3,5-di-tert-butylbenzylidene)-6-(4-methoxyphenyl)pyrazine-2-carbohydrazide]
6.93	6.92	Cc1cc(C)cc(/C=N/NC(=O)c2cncc(-c3ccc(OC4CCCC4)cc3)n2)c1 [Compound 150, (E)-6-(4-(cyclopentyloxy)phenyl)-N′-(3,5-dimethylbenzylidene)pyrazine-2-carbohydrazide]
7.20	6.62	CCOc1ccc(-c2cncc(C(=O)N/N=C/c3cc(OC)ccc3Cl)n2)cc1 [Compound 18, (E)-N′-(2-chloro-5-methoxybenzylidene)-6-(4-ethoxyphenyl)pyrazine-2-carbohydrazide]
< 6.00	< 5.00	COc1cc(/C=N/NC(=O)c2nccnc2OC)cc(OC)c1 [Compound 141, (E)-N′-(3,5-dimethoxybenzylidene)-3-methoxypyrazine-2-carbohydrazide]
7.05	7.08	CCCOc1cc(/C=N/NC(=O)c2cncc(-c3ccc(OCC)cc3OC)n2)cc(OC)c1 [Compound 106, (E)-6-(4-ethoxy-2-methoxyphenyl)-N′-(3-methoxy-5-propoxybenzylidene)pyrazine-2-carbohydrazide]
6.56	5.47	CCCOc1cccc(/C=N/NC(=O)c2cncc(-c3ccc(OC)cc3)n2)c1 [Compound 40, (E)-6-(4-methoxyphenyl)-N′-(3-propoxybenzylidene)pyrazine-2-carbohydrazide]
6.75	5.70	COc1ccc(-c2cncc(C(=O)N/N=C/c3ccccc3F)n2)cc1 [Compound 46, (E)-N′-(2-fluorobenzylidene)-6-(4-methoxyphenyl)pyrazine-2-carbohydrazide]
< 6.00	< 6.00	COc1cc(/C=N/NC(=O)c2cncc(-c3ccc(Cl)cc3)n2)cc(OC)c1 [Compound 1, 6-(4-chlorophenyl)-N′-[(E)-(3,5-dimethoxyphenyl)methylidene]pyrazine-2-carbohydrazide]
< 6.00	< 5.00	COc1cc(/C=N/NC(=O)c2cncc(N3CCOCC3)n2)cc(OC)c1 [Compound 126, (E)-N′-(3,5-dimethoxybenzylidene)-6-morpholinopyrazine-2-carbohydrazide]
< 6.00	< 5.00	COc1cc(/C=N/NC(=O)c2cncc(-c3cccc(F)c3)n2)cc(OC)c1 [Compound 94, (E)-N′-(3,5-dimethoxybenzylidene)-6-(3-fluorophenyl)pyrazine-2-carbohydrazide]
< 6.00	< 5.00	CCCN1CCN(c2cncc(C(=O)N/N=C/c3cc(OC)cc(OC)c3)n2)CC1 [Compound 128, (E)-N′-(3,5-dimethoxybenzylidene)-6-(4-propylpiperazin-1-yl)pyrazine-2-carbohydrazide]
< 6.00	< 5.00	CCOc1ccc(-c2cncc(C(=O)N/N=C/C3CCCCC3)n2)cc1 [Compound 171, (E)-N′-(cyclohexylmethylene)-6-(4-ethoxyphenyl)pyrazine-2-carbohydrazide]
< 6.00	< 5.00	COc1cc(/C=N/NC(=O)c2cncc(-c3cccnc3)n2)cc(OC)c1 [Compound 104, (E)-N′-(3,5-dimethoxybenzylidene)-6-(pyridin-3-yl)pyrazine-2-carbohydrazide]
< 6.00	< 5.00	CCOc1ccc(-c2nc(C(=O)N/N=C/c3cc(OC)cc(OC)c3)cnc2OCC)cc1 [Compound 212, (E)-N′-(3,5-dimethoxybenzylidene)-5-ethoxy-6-(4-ethoxyphenyl)pyrazine-2-carbohydrazide]
< 6.00	< 5.00	COc1cc(/C=N/NC(=O)c2cncc(C(C)C)n2)cc(OC)c1 [Compound 134, (E)-N′-(3,5-dimethoxybenzylidene)-6-isopropylpyrazine-2-carbohydrazide]
6.66	6.63	CCOc1ccc(-c2cncc(C(=O)N/N=C/c3cccc(OC)c3OC)n2)cc1 [Compound 27, (E)-N′-(2,3-dimethoxybenzylidene)-6-(4-ethoxyphenyl)pyrazine-2-carbohydrazide]
7.03	6.97	CC1=C(/C=N/NC(=O)c2cncc(-c3ccc(OC(C)C)cc3)n2)CCCCC1 [Compound 202, (E)-6-(4-isopropoxyphenyl)-N′-((2-methylcyclohept-1-en-1-yl)methylene)pyrazine-2-carbohydrazide]
< 6.00	< 5.00	COc1cc(/C=N/NC(=O)c2cnc(C(C)C)cn2)cc(OC)c1 [Compound 136, (E)-N′-(3,5-dimethoxybenzylidene)-5-isopropylpyrazine-2-carbohydrazide]
6.89	< 5.00	CCOc1ccc(-c2cncc(C(=O)N/N=C/c3cccc(OC)c3)n2)c(F)c1 [Compound 119, (E)-6-(4-ethoxy-2-fluorophenyl)-N′-(3-methoxybenzylidene)pyrazine-2-carbohydrazide]

Structure (SMILES)	pIC50 [1]	pIC50 [2]
COc1cc(/C=N/NC(=O)c2cncc(-c3ccc(OCC(C)C)cc3Cl)n2)cc(OC)c1 [Compound 159, (E)-6-(2-chloro-4-isobutoxyphenyl)-N′-(3,5-dimethoxybenzylidene)pyrazine-2-carbohydrazide]	6.53	6.66
CCCCOc1ccc(-c2cncc(C(=O)N/N=C/c3cc(C)cc(C)c3)n2)cc1 [Compound 84, (E)-6-(4-butoxyphenyl)-N′-(3,5-dimethylbenzylidene)pyrazine-2-carbohydrazide]	6.82	6.75
